Experimental data as given in the supplement of paper PMC10307832.

Columns and labels:
Experiment in all cases: relative viability (nuclei count vs DMSO), 5 days (fraction); higher = more cells survive
NCI-H1563 = tested on: NCI-H1563
Method in brief: (§1)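 Each reported value is a median over duplicate plates. It expresses relative viability: treated-well nuclei count divided by vehicle-well nuclei count. Lung cancer cell lines in 1536-well plates were dosed by pin tool a day after seeding, alone with one drug or with a fixed anchor-drug dose plus five library-drug doses (not always all listed) in √10 steps, and nuclei were counted after 5 days.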

NCI-H650 = tested on: NCI-H650
Method in brief: as §1

HARA = tested on: HARA
Method in brief: as §1

201T = tested on: 201T
Method in brief: as §1

BEN = tested on: BEN
Method in brief: as §1

LU99A = tested on: LU99A
Method in brief: as §1

EMC-BAC-2 = tested on: EMC-BAC-2
Method in brief: as §1

NCI-H2087 = tested on: NCI-H2087
Method in brief: as §1

NCI-H2126 = tested on: NCI-H2126
Method in brief: as §1

LOU-NH91 = tested on: LOU-NH91
Method in brief: as §1

SK-MES-1 = tested on: SK-MES-1
Method in brief: as §1

NCI-H1993 = tested on: NCI-H1993
Method in brief: as §1

HCC-78 = tested on: HCC-78
Method in brief: as §1

RERF-LC-KJ = tested on: RERF-LC-KJ
Method in brief: as §1

H3255 = tested on: H3255
Method in brief: as §1

LC-2-ad = tested on: LC-2-ad
Method in brief: as §1

LXF-289 = tested on: LXF-289
Method in brief: as §1

NCI-H2170 = tested on: NCI-H2170
Method in brief: as §1

HOP-62 = tested on: HOP-62
Method in brief: as §1

UMC-11 = tested on: UMC-11
Method in brief: as §1

COR-L 105 = tested on: COR-L 105
Method in brief: as §1

Question: With `Cc1csc(=NC2CCCCC2)n1/N=C/c1ccc(O)c(O)c1O` [MIM1] + C[C@@H](Oc1cc(-c2cnn(C3CCNCC3)c2)cnc1N)c1c(Cl)ccc(F)c1Cl [Crizotinib] (partner 1 µM) as the compound, how does the relative viability (NCI-H1563; first compound 0.2 µM) read?
Answer: 1

Question: What about the relative viability (NCI-H1563; first compound 0.6325 µM) of the same compound?
Answer: 0.891

Question: And the relative viability (NCI-H1563; first compound 2 µM)?
Answer: 0.749

Question: What about the relative viability (NCI-H1563; first compound 6.325 µM) of the same compound?
Answer: 0.784

Question: And the relative viability (NCI-H1563; first compound 20 µM)?
Answer: 0.577

Question: And the relative viability (NCI-H650; first compound 0.2 µM)?
Answer: 0.649

Question: What about the relative viability (NCI-H650; first compound 0.6325 µM) of the same compound?
Answer: 0.709

Question: What about the relative viability (NCI-H650; first compound 2 µM) of the same compound?
Answer: 0.662

Question: And the relative viability (NCI-H650; first compound 6.325 µM)?
Answer: 0.619

Question: What about the relative viability (NCI-H650; first compound 20 µM) of the same compound?
Answer: 0.279

Question: What about the relative viability (HARA; first compound 0.2 µM) of the same compound?
Answer: 1.06

Question: And the relative viability (HARA; first compound 0.6325 µM)?
Answer: 1.13

Question: What about the relative viability (HARA; first compound 2 µM) of the same compound?
Answer: 1.08

Question: What about the relative viability (HARA; first compound 6.325 µM) of the same compound?
Answer: 0.997

Question: And the relative viability (HARA; first compound 20 µM)?
Answer: 0.138

Question: What about the relative viability (201T; first compound 0.2 µM) of the same compound?
Answer: 1.01

Question: What about the relative viability (201T; first compound 0.6325 µM) of the same compound?
Answer: 1.04

Question: And the relative viability (201T; first compound 2 µM)?
Answer: 1.04

Question: And the relative viability (201T; first compound 6.325 µM)?
Answer: 0.81

Question: What about the relative viability (201T; first compound 20 µM) of the same compound?
Answer: 0.823

Question: What about the relative viability (BEN; first compound 0.2 µM) of the same compound?
Answer: 0.893

Question: And the relative viability (BEN; first compound 0.6325 µM)?
Answer: 0.72

Question: And the relative viability (BEN; first compound 2 µM)?
Answer: 0.982

Question: What about the relative viability (BEN; first compound 6.325 µM) of the same compound?
Answer: 0.801

Question: What about the relative viability (BEN; first compound 20 µM) of the same compound?
Answer: 0.317

Question: What about the relative viability (LU99A; first compound 0.2 µM) of the same compound?
Answer: 0.56

Question: And the relative viability (LU99A; first compound 0.6325 µM)?
Answer: 0.538

Question: And the relative viability (LU99A; first compound 2 µM)?
Answer: 0.474

Question: And the relative viability (LU99A; first compound 6.325 µM)?
Answer: 0.481

Question: And the relative viability (LU99A; first compound 20 µM)?
Answer: 0.29

Question: And the relative viability (EMC-BAC-2; first compound 0.2 µM)?
Answer: 0.708

Question: And the relative viability (EMC-BAC-2; first compound 0.6325 µM)?
Answer: 0.774

Question: And the relative viability (EMC-BAC-2; first compound 2 µM)?
Answer: 0.784

Question: What about the relative viability (EMC-BAC-2; first compound 6.325 µM) of the same compound?
Answer: 0.628

Question: What about the relative viability (EMC-BAC-2; first compound 20 µM) of the same compound?
Answer: 0.196

Question: What about the relative viability (NCI-H2087; first compound 0.2 µM) of the same compound?
Answer: 0.772

Question: And the relative viability (NCI-H2087; first compound 0.6325 µM)?
Answer: 0.934

Question: And the relative viability (NCI-H2087; first compound 2 µM)?
Answer: 0.838

Question: What about the relative viability (NCI-H2087; first compound 6.325 µM) of the same compound?
Answer: 0.739

Question: What about the relative viability (NCI-H2087; first compound 20 µM) of the same compound?
Answer: 0.766

Question: And the relative viability (NCI-H2126; first compound 0.2 µM)?
Answer: 1.05

Question: And the relative viability (NCI-H2126; first compound 0.6325 µM)?
Answer: 1.05

Question: What about the relative viability (NCI-H2126; first compound 2 µM) of the same compound?
Answer: 1.03

Question: And the relative viability (NCI-H2126; first compound 6.325 µM)?
Answer: 0.963

Question: And the relative viability (NCI-H2126; first compound 20 µM)?
Answer: 0.659

Question: What about the relative viability (LOU-NH91; first compound 0.2 µM) of the same compound?
Answer: 0.748

Question: And the relative viability (LOU-NH91; first compound 0.6325 µM)?
Answer: 0.728

Question: And the relative viability (LOU-NH91; first compound 2 µM)?
Answer: 0.683

Question: And the relative viability (LOU-NH91; first compound 6.325 µM)?
Answer: 0.675

Question: What about the relative viability (LOU-NH91; first compound 20 µM) of the same compound?
Answer: 0.392

Question: And the relative viability (SK-MES-1; first compound 0.2 µM)?
Answer: 0.953

Question: What about the relative viability (SK-MES-1; first compound 0.6325 µM) of the same compound?
Answer: 0.937

Question: What about the relative viability (SK-MES-1; first compound 2 µM) of the same compound?
Answer: 0.959

Question: What about the relative viability (SK-MES-1; first compound 6.325 µM) of the same compound?
Answer: 0.799

Question: And the relative viability (SK-MES-1; first compound 20 µM)?
Answer: 0.732

Question: What about the relative viability (NCI-H1993; first compound 0.2 µM) of the same compound?
Answer: 0.886

Question: And the relative viability (NCI-H1993; first compound 0.6325 µM)?
Answer: 0.805

Question: What about the relative viability (NCI-H1993; first compound 2 µM) of the same compound?
Answer: 0.827

Question: What about the relative viability (NCI-H1993; first compound 6.325 µM) of the same compound?
Answer: 0.608

Question: And the relative viability (NCI-H1993; first compound 20 µM)?
Answer: 0.594

Question: What about the relative viability (HCC-78; first compound 0.2 µM) of the same compound?
Answer: 0.322

Question: What about the relative viability (HCC-78; first compound 0.6325 µM) of the same compound?
Answer: 0.324

Question: What about the relative viability (HCC-78; first compound 2 µM) of the same compound?
Answer: 0.309

Question: And the relative viability (HCC-78; first compound 6.325 µM)?
Answer: 0.318

Question: And the relative viability (HCC-78; first compound 20 µM)?
Answer: 0.735

Question: What about the relative viability (RERF-LC-KJ; first compound 0.2 µM) of the same compound?
Answer: 0.787

Question: What about the relative viability (RERF-LC-KJ; first compound 0.6325 µM) of the same compound?
Answer: 0.836

Question: What about the relative viability (RERF-LC-KJ; first compound 2 µM) of the same compound?
Answer: 0.708

Question: And the relative viability (RERF-LC-KJ; first compound 6.325 µM)?
Answer: 0.499

Question: What about the relative viability (RERF-LC-KJ; first compound 20 µM) of the same compound?
Answer: 0.267

Question: What about the relative viability (H3255; first compound 0.2 µM) of the same compound?
Answer: 0.911

Question: What about the relative viability (H3255; first compound 0.6325 µM) of the same compound?
Answer: 0.847

Question: What about the relative viability (H3255; first compound 2 µM) of the same compound?
Answer: 0.774

Question: What about the relative viability (H3255; first compound 6.325 µM) of the same compound?
Answer: 0.629

Question: What about the relative viability (H3255; first compound 20 µM) of the same compound?
Answer: 0.435

Question: And the relative viability (LC-2-ad; first compound 0.2 µM)?
Answer: 0.499

Question: What about the relative viability (LC-2-ad; first compound 0.6325 µM) of the same compound?
Answer: 0.385

Question: And the relative viability (LC-2-ad; first compound 2 µM)?
Answer: 0.34

Question: And the relative viability (LC-2-ad; first compound 6.325 µM)?
Answer: 0.277

Question: What about the relative viability (LC-2-ad; first compound 20 µM) of the same compound?
Answer: 0.21

Question: And the relative viability (LXF-289; first compound 0.2 µM)?
Answer: 0.806

Question: And the relative viability (LXF-289; first compound 0.6325 µM)?
Answer: 0.732

Question: And the relative viability (LXF-289; first compound 2 µM)?
Answer: 0.833

Question: And the relative viability (LXF-289; first compound 6.325 µM)?
Answer: 0.655

Question: What about the relative viability (LXF-289; first compound 20 µM) of the same compound?
Answer: 0.388

Question: And the relative viability (NCI-H2170; first compound 0.2 µM)?
Answer: 1.15

Question: And the relative viability (NCI-H2170; first compound 0.6325 µM)?
Answer: 1.07

Question: What about the relative viability (NCI-H2170; first compound 2 µM) of the same compound?
Answer: 1.13

Question: And the relative viability (NCI-H2170; first compound 6.325 µM)?
Answer: 0.652

Question: And the relative viability (NCI-H2170; first compound 20 µM)?
Answer: 0.302

Question: And the relative viability (HOP-62; first compound 0.2 µM)?
Answer: 0.927

Question: What about the relative viability (HOP-62; first compound 0.6325 µM) of the same compound?
Answer: 0.914

Question: And the relative viability (HOP-62; first compound 2 µM)?
Answer: 0.642

Question: And the relative viability (HOP-62; first compound 6.325 µM)?
Answer: 0.888

Question: What about the relative viability (HOP-62; first compound 20 µM) of the same compound?
Answer: 0.0803

Question: What about the relative viability (UMC-11; first compound 0.2 µM) of the same compound?
Answer: 0.544

Question: What about the relative viability (UMC-11; first compound 0.6325 µM) of the same compound?
Answer: 0.565

Question: What about the relative viability (UMC-11; first compound 2 µM) of the same compound?
Answer: 0.649

Question: What about the relative viability (UMC-11; first compound 6.325 µM) of the same compound?
Answer: 0.349

Question: What about the relative viability (UMC-11; first compound 20 µM) of the same compound?
Answer: 0.184

Question: And the relative viability (COR-L 105; first compound 0.2 µM)?
Answer: 0.893

Question: What about the relative viability (COR-L 105; first compound 0.6325 µM) of the same compound?
Answer: 0.811

Question: And the relative viability (COR-L 105; first compound 2 µM)?
Answer: 0.612

Question: What about the relative viability (COR-L 105; first compound 6.325 µM) of the same compound?
Answer: 0.724

Question: And the relative viability (COR-L 105; first compound 20 µM)?
Answer: 0.759
